Reference: patent US11230538B2, “Herbicides” (SYNGENTA PARTICIPATIONS AG, priority 2016, dated 2022)

Legend:
Type in all cases: in vivo
[1] = system: Echinochloa crus-galli (ECHCG); experiment: B2 Post-emergence herbicidal activity; design: key to Post-emergence herbicidal activity, ECHCG (damage score 0-5): 5=total damage to plant; 0=no damage to plant; conditions: post-emergence application, rate 1000 g/ha, evaluated after 13 days
Method in brief: (§1)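 Injury was rated 13 days after treatment from 0 (no damage) to 5 (total damage). The spray, applied 8 days after sowing, was an aqueous solution of the active ingredient from an acetone/water (50:50) formulation with 0.5% Tween 20. Plants were kept at 24/16° C, 14 h light, 65% humidity.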

Lolium perenne (LOLPE) [2] = experiment: B2 Post-emergence herbicidal activity; design: key to Post-emergence herbicidal activity, LOLPE (damage score 0-5): 5=total damage to plant; 0=no damage to plant; conditions: post-emergence application, rate 1000 g/ha, evaluated after 13 days
Procedure: (§2) Seeds of a variety of test species were sown in standard soil in pots: Triticum aestivium (TRZAW), Avena fatua (AVEFA), Alopecurus myosuroides (ALOMY), Echinochloa crus-galli (ECHCG), Lolium perenne (LOLPE), Zea Mays (ZEAMX), Abutilon theophrasti (ABUTH), Amaranthus retroflexus (AMARE) and Setaria fabenri (SETFA). After 8 days cultivation (post-emergence) under controlled conditions in a glasshouse (at 24/16° C., day/night; 14 hours light; 65% humidity), the plants were sprayed with an aqueous spray solution derived from the formulation of the technical active ingredient in acetone I water (50:50) solution containing 0.5% Tween 20 (polyoxyethelyene sorbitan monolaurate, CAS RN 9005-64-5). The test plants were then grown in a glasshouse under controlled conditions (at 24/16° C., day/night; 14 hours light; 65% humidity) and watered twice daily. After 13 days, the test was evaluated (5=total damage to plant; 0=no damage to plant).

Lolium perenne (LOLPE) [3] = experiment: B1 Pre-emergence herbicidal activity; design: key to Pre-emergence herbicidal activity, LOLPE (damage score 0-5): 5=total damage to plant; 0=no damage to plant; conditions: pre-emergence application, rate 1000 g/ha, evaluated after 13 days
Method in brief: (§3)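 Damage was rated 13 days after treatment, from 0 for none to 5 for total. The spray, in acetone/water 50:50 with 0.5% Tween 20, was applied pre-emergence, one day after seeds were sown in soil. Plants grew under glasshouse control at 24/16 °C, 14 h light, 65% humidity.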

[4] = system: Triticum aestivium (TRZAW); experiment: B2 Post-emergence herbicidal activity; design: key: 5=total damage to plant; 0=no damage to plant; conditions: post-emergence application, rate 1000 g/ha, evaluated after 13 days
Method in brief: as §1

Setaria fabenri (SETFA) = experiment: B2 Post-emergence herbicidal activity; design: key: 5=total damage to plant; 0=no damage to plant; conditions: post-emergence application, rate 1000 g/ha, evaluated after 13 days
Method in brief: as §1

[5] = system: Alopecurus myosuroides (ALOMY); experiment: B2 Post-emergence herbicidal activity; design: key: 5=total damage to plant; 0=no damage to plant; conditions: post-emergence application, rate 1000 g/ha, evaluated after 13 days
Method in brief: as §1

Setaria fabenr (SETFA) = experiment: B1 Pre-emergence herbicidal activity; design: key to Pre-emergence herbicidal activity, SETFA (damage score 0-5): 5=total damage to plant; 0=no damage to plant; conditions: pre-emergence application, rate 1000 g/ha, evaluated after 13 days
Method in brief: as §3

Avena fatua (AVEFA) [6] = experiment: B1 Pre-emergence herbicidal activity; design: key: 5=total damage to plant; 0=no damage to plant; conditions: pre-emergence application, rate 1000 g/ha, evaluated after 13 days
Method in brief: as §3

[7] = system: Triticum aestivium (TRZAW); experiment: B1 Pre-emergence herbicidal activity; design: key: 5=total damage to plant; 0=no damage to plant; conditions: pre-emergence application, rate 1000 g/ha, evaluated after 13 days
Method in brief: as §3

[8] = system: Alopecurus myosuroides (ALOMY); experiment: B1 Pre-emergence herbicidal activity; design: key: 5=total damage to plant; 0=no damage to plant; conditions: pre-emergence application, rate 1000 g/ha, evaluated after 13 days
Method in brief: as §3

Avena fatua (AVEFA) [9] = experiment: B2 Post-emergence herbicidal activity; conditions: post-emergence application, rate 1000 g/ha, evaluated after 13 days
Procedure: as §2

[10] = system: Echinochloa crus-galli (ECHCG); experiment: B1 Pre-emergence herbicidal activity; conditions: pre-emergence application, rate 1000 g/ha, evaluated after 13 days
Method in brief: as §3

| Structure (SMILES) | Post-emergence herbicidal activity, ECHCG (damage score 0-5) [1] | Post-emergence herbicidal activity, LOLPE (damage score 0-5) (Lolium perenne (LOLPE) [2]) | Pre-emergence herbicidal activity, LOLPE (damage score 0-5) (Lolium perenne (LOLPE) [3]) | Post-emergence herbicidal activity, TRAZW (damage score 0-5) [4] | Post-emergence herbicidal activity, SETFA (damage score 0-5) (Setaria fabenri (SETFA)) | Post-emergence herbicidal activity, ALOMY (damage score 0-5) [5] | Pre-emergence herbicidal activity, SETFA (damage score 0-5) (Setaria fabenr (SETFA)) | Pre-emergence herbicidal activity, AVEFA (damage score 0-5) (Avena fatua (AVEFA) [6]) | Pre-emergence herbicidal activity, TRAZW (damage score 0-5) [7] | Pre-emergence herbicidal activity, ALOMY (damage score 0-5) [8] | Post-emergence herbicidal activity, AVEFA (damage score 0-5) (Avena fatua (AVEFA) [9]) | Pre-emergence herbicidal activity, ECHCG (damage score 0-5) [10] |
| --- | --- | --- | --- | --- | --- | --- | --- | --- | --- | --- | --- | --- |
| Cc1nc(-c2cncc(F)c2)ccc1NC(=O)C(C)C [Compound C3] | 5 | 3 | 1 | 1 | 5 | 1 | 5 | 0 | 0 | 0 | 3 | 4 |
| CC(C)C(=O)N(C)c1ccc(-c2cncc(F)c2)nc1C(F)(F)F [Compound C4, N-[6-(5-fluoro-3-pyridyl)-2-(trifluoromethyl)-3-pyridyl]-N,2-dimethyl-propanamide] | 4 | 5 | 5 | 1 | 3 | 1 | 1 | 1 | 0 | 0 | 4 | 4 |
| CC(=O)N(C(C)=O)c1ccc(-c2cncc(F)c2)nc1C(F)(F)F [Compound C5, N-acetyl-N-[6-(5-fluoro-3-pyridyl)-2-(trifluoromethyl)-3-pyridyl]acetamide] | 4 | 4 | 1 | 0 | 5 | 1 | 5 | 3 | 0 | 1 | 4 | 4 |
| CC(=O)N(C(C)=O)c1ccc(-c2cncnc2)nc1C(F)(F)F [Compound C6] | 4 | 4 | 2 | 1 | 5 | 1 | 4 | 4 | 1 | 1 | 4 | 4 |
| CC(=O)Nc1ccc(-c2cncnc2)nc1C(F)(F)F [Compound C7] | 4 | 3 | 1 | 1 | 5 | 1 | 4 | 3 | 0 | 0 | 4 | 4 |
| CC(C)C(=O)Nc1ccc(-c2cncnc2)nc1C(F)(F)F [Compound C8] | 4 | 2 | 2 | 2 | 5 | 3 | 5 | 3 | 0 | 0 | 4 | 4 |
| CC(C)C(=O)Nc1ccc(-c2cncc(C#N)c2)nc1C(F)(F)F [Compound C11] | 3 | 1 | 1 | 0 | 5 | 1 | 4 | 0 | 0 | 0 | 2 | 1 |
| CC(C)C(=O)Nc1ccc(-c2cncc(Cl)c2)nc1C(F)(F)F [Compound C12] | 5 | 2 | 1 | 0 | 5 | 1 | 4 | 0 | 0 | 0 | 3 | 2 |
| CCC(=O)Nc1ccc(-c2cncc(F)c2)nc1C(F)(F)F [Compound C13] | 5 | 4 | 3 | 0 | 5 | 1 | 5 | 2 | 0 | 1 | 4 | 4 |
